Drawing on US20260014146A1, “CDK2 INHIBITORS AND METHODS OF USING THE SAME” (Cedilla Therapeutics, Inc., priority 2022, published 2026), this text covers IC50 for 10 compounds.

The target in experiment [1] is T1, CDK2/Cyclin E1 (Homo sapiens (Human), UniProt P24941). Put plainly: Caliper LabChip EZ Reader mobility shift assay. Particulars: 2.5 nM CDK2/Cyclin E1 (14-475), 100 μM ATP, 1.5 μM fluorescent peptide; read-out: Caliper Assay (CDK2/CCNE1): IC50. Type of experiment: biochemical. Here is the method:
Inhibition of CDK2/Cyclin E1 activity in the presence of compounds of the present disclosure was evaluated using a Caliper LabChip® EZ Reader mobility shift assay. In the assay, activated CDK2/Cyclin E1 catalyzes the phosphorylation of a fluorescently tagged peptide 5-FAM-QSPKKG-CONH2 (PerkinElmer, FL Peptide 18) which induces a difference in capillary electrophoresis mobility. The peptide substrate and product were measured, and the conversion ratio was used to determine the inhibition (as % activity and IC50 values) of CDK2/Cyclin E1. Reactions contained 50 mM HEPES pH 7.5, 10 mM MgCl2, 1 mM EDTA, 2 mM DTT, 0.01% Brij35, 0.5 mg/mL BSA, 0.1% DMSO, 2.5 nM CDK2/Cyclin E1 (14-475), 100 μM ATP, and 1.5 μM fluorescent peptide substrate.
Dose titrations of inhibitors in 100% DMSO were combined with 3.25 nM CDK2/Cyclin E1 (14-475) and 130 μM of ATP in reaction buffer. The mixtures were incubated for 30 minutes before the addition of fluorescent peptide substrate to initiate the kinase reaction. The final conditions were 2.5 nM CDK2/Cyclin E1 (14-475), 100 μM ATP, and 1.5 μM fluorescent peptide. The reactions were stopped after 100 minutes with the addition of EDTA (6 mM final EDTA concentration). The stopped reactions were analyzed on a Caliper LabChip® EZ Reader II. The conversion ratios were normalized to yield % activity, plotted against compound concentration, and fit to a four-parameter equation to determine the IC50 for each compound.

Another experiment relates to Kuramochi cells. Put plainly: BrdU cell proliferation assay. Type of experiment: cell-based. Conditions: 96 h, developed on day 4, read-out: BrdU - KURAMOCHI.1: IC50. The method, then: A BrdU assay was used as a measure of proliferation based on the DNA replication process of proliferating cells. BrdU, a pyrimidine analog, is added to the cell culture and incorporated into the DNA of proliferating cells. The presence of the BrdU analog was then measured through a colorimetric ELISA. After fixation and permeabilization of cells, peroxidase-conjugated antibody recognizing BrdU is added and allowed to incubate, followed by thorough washing to remove unbound antibody. In order to quantify the amount of bound antibody, peroxidase substrate is added and produces a color that can be measured at 450 nm.
On day −1, Kuramochi cells (Sekisui XenoTech JCRB0098) were seeded at 2,000 cells/well in columns 2-12 of a 96 well plate (Corning, CLS3596) in 150 uL media and allowed to adhere overnight at 37 degree with 5% CO2. In order to assess specificity of the compounds, Kuramochi RB^KO cells were also plated and treated, as RB^KO cells were not expected to show a proliferative response to CCNE/CDK specific inhibitors.
On day 0, the source plate was prepared by adding 10 mM compounds and performing 3-fold serial dilutions for a 4-point dose response of each compound. Using a multichannel pipette, 2 μL of the contents of the source plate were stamped into an intermediate plate with 500 μL of RPMI 1640 Media, GlutaMAX Supplement (Life Technologies. 61870127) in each well of a Nunc 96 DeepWell™ plate, non-treated 96 DeepWell plate, 2 mL/well, sterile, natural. 60/cs (Sigma Z717274) and mixed thoroughly. 50 uL from row A of this intermediate plate were added to rows A-H of one plate of previously seeded Kuramochi cells, and each subsequent row of the intermediate plate was added to a full plate of cells.
On day 4, the plates were developed using the BrdU ELISA Cell Proliferation Assay according to manufacturer's instructions (Roche, 11647229001). Briefly, BrdU was diluted 1:100 in Gibco®. Opti-MEM® and 20 μL/well was added, shaken for 10 minutes at 350 rpm, and then returned to the incubator for 1 hour. Following incubation, the medium was discarded, and the cells were fixed by adding 200 μL of Fix/Denature solution. The anti-BrdU peroxidase antibody was diluted 1:1000 in OptiMEM, added at 100 μL/well, and incubated while shaking (350 rpm) for one hour. Three washes with PBS were performed to remove any unbound antibody, followed by the addition of 100 μL of substrate solution to each well. […] was then added to halt the reaction, and plates were read out using an Envision spectrophotometer (Perkin Elmer) set to read 450 nm absorbance. Background absorbance values from empty wells were subtracted from all samples and then normalized to DMSO treated wells.

Experiment [2] deals with Kuramochi cells labeled with mApple-H2B. Put plainly: IncuCyte cell proliferation assay. Type of experiment: cell-based. Conditions: Kuramochi RB-WT, cell count 0 to 72 hours; method calls it GI50. The method, then: IncuCyte® assay was used to measure the effect of disclosed compounds on cell proliferation. Fluorescent microscopy images of cells were taken immediately after compound treatment and 72 hours later. Image analysis software was used to obtain cell counts as a function of compound concentration. Kuramochi cells labeled with mApple-H2B were seeded on 384-well assay-ready plates. Plates were placed in an IncuCyte® (Sartorius) and scanned at 0 and 72 hours. IncuCyte® software was used to count the number of fluorescent nuclei in each well. The fold change in cell count from 0 to 72 hours in wells treated with increasing compounds concentrations (10 pts, 1/2 log dilution, 20 μM top concentration) was normalized to DMSO control wells. The normalized cell counts were fit with dose response curves and a GI50 was calculated.

Experiment [3] has as its target T1, CDK2/Cyclin E1. Put plainly: ADP-Glo Luminescent Kinase Assay, ADPGLO (CDK2/E1-37C). Type of experiment: biochemical. Conditions: 0.18 nM CDK2/Cyclin E1, 100 μM ATP, 1.5 μM Histone H1, 37° C.; read-out: Pharmaron ADPGLO (CDK2/E1-37C): IC50. The method, then: Inhibition of CDK2/Cyclin E1 activity by the presence of small molecules was evaluated using ADP-Glo Luminescent Kinase Assay (Promega). Activated CDK2/Cyclin E1 was incubated with its substrate Histone H1 (SignalChem H10-54N) in the kinase reaction buffer (100 μM ATP, 50 mM HEPES pH 7.5, 10 mM MgCl2, 1 mM EDTA, 2 mM DTT, 0.01% Brij35, 0.5 mg/mL BSA). Luminescence was recorded with an Envision plate reader (PerkinElmer).
Dose titrations of inhibitors in 100% DMSO were combined with 0.36 nM CDK2/Cyclin E1 in reaction buffer. The mixtures were incubated for 60 minutes at 37° C. before the addition of ATP and Histone H1 substrate to initiate the kinase reaction. The final conditions were 0.18 nM CDK2/Cyclin E1, 100 μM ATP, and 1.5 μM Histone H1. The reactions were incubated at 37° C. for 90 minutes before being stopped with the addition of ADP-Glo reagent. This mixture was incubated at room temperature for 60 minutes before Kinase Detection Solution is added to generate luminescence. The stopped reactions were analyzed on an Envision plate reader. The conversion ratios were normalized to yield % activity, plotted against compound concentration, and fit to a four-parameter equation to determine the IC50 for each compound.
(In general: ADP-Glo first removes unused ATP, then detects ADP through luciferase.)

Where only a bound is given, the exact number is not on record here.

Consider `CNC(=O)[C@@H](NC(=O)[C@@H]1CN(C(=O)c2cnn(Cc3ccccc3)c2)CC12CN(c1nnn[nH]1)C2)[C@@H](C)OCC1CCCCC1` [Compound I-1, (S)-6-(1-Benzyl-1H-pyrazole-4-carbonyl)-N-((2S,3R)-3-(cyclohexylmethoxy)-1-(methylamino)-1-oxobutan-2-yl)-2-(1H-tetrazol-5-yl)-2,6-diazaspiro[3.4]octane-8-carboxamide], for which the IC50 on CDK2/Cyclin E1 [1] is more than 10 µM; in the experiment on Kuramochi cells it was more than 10 µM; in experiment [2] it was more than 20 µM.
`CNC(=O)[C@@H](NC(=O)[C@@H]1CN(C(=O)c2cnn(Cc3ccccc3)c2)CC12CN(c1ncco1)C2)[C@@H](C)OCC1CCCCC1` [Compound I-2, (S)-6-(1-benzyl-1H-pyrazole-4-carbonyl)-N-((2S,3R)-3-(cyclohexylmethoxy)-1-(methylamino)-1-oxobutan-2-yl)-2-(oxazol-2-yl)-2,6-diazaspiro[3.4]octane-8-carboxamide]: the IC50 is 0.1 to 1 µM on CDK2/Cyclin E1 [1], more than 10 µM in the experiment with Kuramochi cells and more than 20 µM in experiment [2].
For `C[C@@H](OCC12CCC(CC1)OC2)[C@H](NC(=O)[C@@H]1CN(C(=O)c2cncs2)CC12CN(c1ncco1)C2)C(C)(C)O` [Compound I-3, (S)-N-((3S,4R)-4-(2-oxabicyclo[2.2.2]octan-4-ylmethoxy)-2-hydroxy-2-methylpentan-3-yl)-2-(oxazol-2-yl)-6-(thiazole-5-carbonyl)-2,6-diazaspiro[3.4]octane-8-carboxamide] the same measures were more than 10 µM, more than 10 µM and more than 20 µM.
For `C[C@@H](OCC1CCC(F)(F)CC1)[C@H](NC(=O)[C@@H]1CN(C(=O)c2cncs2)CC12CN(c1ncco1)C2)C(C)(C)O` [Compound I-4, (S)-N-((3S,4R)-4-((4,4-difluorocyclohexyl)methoxy)-2-hydroxy-2-methylpentan-3-yl)-2-(oxazol-2-yl)-6-(thiazole-5-carbonyl)-2,6-diazaspiro[3.4]octane-8-carboxamide] the same measures were 1 to 10 µM, more than 10 µM and more than 20 µM.
Taken in the same sequence, the figures for `C[C@@H](OCC1CCCCC1)[C@H](NC(=O)[C@@H]1CN(c2cccc3ncsc23)CC12CN(C(=O)[C@H]1CC1(C)C)C2)C(=O)N1CCCCC1` [Compound I-7, (S)-6-(benzo[d]thiazol-7-yl)-N-((2S,3R)-3-(cyclohexylmethoxy)-1-oxo-1-(piperidin-1-yl)butan-2-yl)-2-((S)-2,2-dimethylcyclopropanecarbonyl)-2,6-diazaspiro[3.4]octane-8-carboxamide] were 0.1 to 1 µM, 5 to 10 µM and more than 20 µM.
With `C[C@@H](OCC1CCCCC1)[C@H](NC(=O)[C@@H]1CN(c2cccc3scnc23)CC12CN(C(=O)[C@H]1CC1(C)C)C2)C(=O)N1CCCCC1` [Compound I-8, 6-(benzo[d]thiazol-4-yl)-N-((2S,3R)-3-(cyclohexylmethoxy)-1-oxo-1-(piperidin-1-yl)butan-2-yl)-2-((S)-2,2-dimethylcyclopropanecarbonyl)-2,6-diazaspiro[3.4]octane-8-carboxamide], the IC50 at CDK2/Cyclin E1 [1] was more than 10 µM; in the experiment on Kuramochi cells it was 5 to 10 µM; in experiment [2], more than 20 µM.
Taken in the same sequence, the figures for `C[C@@H](OCC1CCCCC1)[C@H](NC(=O)[C@@H]1CN(c2nccc3[nH]ncc23)CC12CN(C(=O)[C@H]1CC1(C)C)C2)C(=O)N1CCCCC1` [Compound I-9, (S)-N-((2S,3R)-3-(cyclohexylmethoxy)-1-oxo-1-(piperidin-1-yl)butan-2-yl)-2-((S)-2,2-dimethylcyclopropanecarbonyl)-6-(1H-pyrazolo[4,3-c]pyridin-4-yl)-2,6-diazaspiro[3.4]octane-8-carboxamide] were more than 10 µM, more than 10 µM and more than 20 µM.
As to `C[C@@H](OCC1CCCCC1)[C@H](NC(=O)[C@@H]1CN(c2nccc3scnc23)CC12CN(C(=O)[C@H]1CC1(C)C)C2)C(=O)N1CCCCC1` [Compound I-10, (S)-N-((2S,3R)-3-(cyclohexylmethoxy)-1-oxo-1-(piperidin-1-yl)butan-2-yl)-2-((S)-2,2-dimethylcyclopropanecarbonyl)-6-(thiazolo[4,5-c]pyridin-4-yl)-2,6-diazaspiro[3.4]octane-8-carboxamide], the IC50 at CDK2/Cyclin E1 [1] was more than 10 µM; with Kuramochi cells, more than 10 µM; in experiment [2], 5 to 20 µM.
As for `C[C@@H](OCC1CCCCC1)[C@H](NC(=O)[C@@H]1CN(c2cccc3[nH]ccc23)CC12CN(C(=O)[C@H]1CC1(C)C)C2)C(=O)N1CCCCC1` [Compound I-14, (S)-N-((2S,3R)-3-(cyclohexylmethoxy)-1-oxo-1-(piperidin-1-yl)butan-2-yl)-2-((S)-2,2-dimethylcyclopropanecarbonyl)-6-(1H-indol-4-yl)-2,6-diazaspiro[3.4]octane-8-carboxamide], the IC50 on CDK2/Cyclin E1 [1] was more than 10 µM; with Kuramochi cells, more than 10 µM; in experiment [2] it was 0.5 to 5 µM.
For `C[C@@H](OCC12CCC(CC1)OC2)[C@H](NC(=O)[C@@H]1CN(c2cc(F)cc3nccnc23)CC12CN(C(=O)C1(C(F)(F)F)CC1)C2)C(=O)N1CCC(c2nccs2)CC1` [Compound I-44, (S)-N-((2S,3R)-3-(2-oxabicyclo[2.2.2]octan-4-ylmethoxy)-1-oxo-1-(4-(thiazol-2-yl)piperidin-1-yl)butan-2-yl)-6-(7-fluoroquinoxalin-5-yl)-2-(1-(trifluoromethyl)cyclopropanecarbonyl)-2,6-diazaspiro[3.4]octane-8-carboxamide], the IC50 is more than 20 µM in experiment [2] and 0.5 to 5 µM on CDK2/Cyclin E1 [3].
